From ChEMBL document CHEMBL1681742, “Novel second generation analogs of eribulin. Part I: Compounds containing a lipophilic C32 side chain overcome P-glycoprotein susceptibility” (Bioorg Med Chem Lett, 2011)
Activity calls are given as the source filed them. The calls are words filed in the database; no cut-off is given here.

Legend:
[1] = tested on: LOX; assay: Antitumor activity against human LOX cells xenografted in athymic mouse assessed as inhibition of tumor growth at 0.1 mg/kg, iv qd administered 5 days a week for 2 weeks measured up to 2 weeks; type: functional, organism-based; parameters: dose 0.1 mg/kg
[2] = Antiproliferative activity against P-gp overexpressing human MES-SA/Dx5-Rx1 cells assessed as growth inhibition; type: functional
[3] = tested on: Mus musculus; assay: Toxicity in athymic mouse xenografted with human LOX cells assessed as reduction in water uptake at 0.1 mg/kg, iv qd administered 5 days a week for 2 weeks; type: organism-based; parameters: dose 0.1 mg/kg, route intravenous; conditions: in vivo
[4] = Antiproliferative activity against human MES-SA cells assessed as growth inhibition; type: functional, cell-based
[5] = tested on: HCT-15; assay: Antiproliferative activity against human HCT15 cells assessed as growth inhibition; type: functional, cell-based
[6] = Cytotoxicity against human IMR90 cells up to 1 uM; type: cell-based; conditions: imr-90
[7] = Fold resistance, ratio of IC50 for antiproliferative activity for P-gp overexpressing human MES-SA/Dx5-Rx1cells to IC50 for antiproliferative activity for human MES-SA cells
[8] = tested on: DLD-1; assay: Antiproliferative activity against human DLD1 cells assessed as growth inhibition; type: functional, cell-based
[9] = tested on: LOX; assay: Antitumor activity against human LOX cells xenografted in athymic mouse assessed as inhibition of tumor growth at 0.1 mg/kg, iv qd administered 5 days a week for 2 weeks measured after 2 weeks; type: functional, organism-based; parameters: dose 0.1 mg/kg
[10] = tested on: Mus musculus; assay: Toxicity in athymic mouse xenografted with human LOX cells assessed as body weight loss at 0.1 mg/kg, iv qd administered 5 days a week for 2 weeks; type: organism-based; parameters: dose 0.1 mg/kg, route intravenous; conditions: in vivo

SMILES | IC50 [5] | IC50 [8] | Activity [1] | IC50 [2] | Activity [3] | IC50 [4] | Activity [6] | Ratio IC50 [7] | Activity [9] | Activity [10]
C=C1C[C@@H]2CC[C@@]34C[C@H]5O[C@H]6[C@@H](O3)[C@H]3O[C@H](CC[C@@H]3O[C@H]6[C@H]5O4)CC(=O)C[C@@H]3[C@@H](OC)[C@@H](C[C@@H](COC)OC)O[C@H]3C[C@H]3O[C@@H](CC[C@@H]1O2)C[C@@H](C)C3=C | 0.21 nM | 0.36 nM | Active | 1.86 nM | Non-toxic | 0.24 nM | Non-toxic | 7.76 | inactive | Non-toxic
C=C1C[C@@H]2CC[C@@]34C[C@H]5O[C@H]6[C@@H](O3)[C@H]3O[C@H](CC[C@@H]3O[C@H]6[C@H]5O4)CC(=O)C[C@@H]3[C@@H](OC)[C@@H](C[C@H](O)CN)O[C@H]3C[C@H]3O[C@@H](CC[C@@H]1O2)C[C@@H](C)C3=C [ERIBULIN] | 204 nM | 20 nM | Active | 3060 nM |  | 1.66 nM | Non-toxic | 1842 |  | 
C=C1C[C@@H]2CC[C@@]34C[C@H]5O[C@H]6[C@@H](O3)[C@H]3O[C@H](CC[C@@H]3O[C@H]6[C@H]5O4)CC(=O)C[C@@H]3[C@@H](OC)[C@@H](C[C@@H](COCC)OCC)O[C@H]3C[C@H]3O[C@@H](CC[C@@H]1O2)C[C@@H](C)C3=C | 0.55 nM | 0.8 nM |  | 2.38 nM |  | 0.54 nM | Non-toxic | 4.4 |  | 

Continued, in another order:

IC50 [5] | IC50 [8] | SMILES | Activity [1] | IC50 [2] | Activity [3] | IC50 [4] | Activity [6] | Ratio IC50 [7] | Activity [9] | Activity [10]
0.2 nM | 0.27 nM | C=C1C[C@@H]2CC[C@@]34C[C@H]5O[C@H]6[C@@H](O3)[C@H]3O[C@H](CC[C@@H]3O[C@H]6[C@H]5O4)CC(=O)C[C@@H]3[C@@H](OC)[C@@H](C[C@H](O)COC)O[C@H]3C[C@H]3O[C@@H](CC[C@@H]1O2)C[C@@H](C)C3=C | Active | 2.82 nM | Non-toxic | 0.17 nM | Non-toxic | 17.09 | inactive | Non-toxic
0.68 nM | 1.43 nM | C=C1C[C@@H]2CC[C@@]34C[C@H]5O[C@H]6[C@@H](O3)[C@H]3O[C@H](CC[C@@H]3O[C@H]6[C@H]5O4)CC(=O)C[C@@H]3[C@@H](OC)[C@@H](CCC#N)O[C@H]3C[C@H]3O[C@@H](CC[C@@H]1O2)C[C@@H](C)C3=C |  | 2.91 nM |  | 0.75 nM | Non-toxic | 3.88 |  | 
18.3 nM | 17.6 nM | C=C1C[C@@H]2CC[C@@]34C[C@H]5O[C@H]6[C@@H](O3)[C@H]3O[C@H](CC[C@@H]3O[C@H]6[C@H]5O4)CC(=O)C[C@@H]3[C@@H](OC)[C@@H](CC(=O)O)O[C@H]3C[C@H]3O[C@@H](CC[C@@H]1O2)C[C@@H](C)C3=C |  | 95.5 nM |  | 12.4 nM | Non-toxic | 7.72 |  | 
